Test results from US11718604B2, “4-amino-6-(1,3-benzodioxole)picolinates and their use as herbicides” (Dow AgroSciences LLC, priority 2018, dated 2023).

What was measured:
Assay type in all cases: in vivo
[1] = test system: CYPES: yellow nutsedge (Cyperus esculentus); experiment: Post-emergent herbicidal test, yellow nutsedge; conditions: post-emergence, 336 h, 14 days after application, read-out: Visual Growth Reduction (%) 14 Days After Application CYPES
Protocol: (§1) Post-Emergent Test: Seeds or nutlets of the desired test plant species were planted in Sun Gro Metro-Mix® 360 planting mixture, which typically has a pH of 6.0 to 6.8 and an organic matter content of about 30 percent, in plastic pots with a surface area of 64 square centimeters (cm^2). When required to ensure good germination and healthy plants, a fungicide treatment and/or other chemical or physical treatment was applied. The plants were grown for 7-21 d in a greenhouse with an approximate 15 h photoperiod which was maintained at about 23-29° C. during the day and 22-28° C. during the night. Nutrients and water were added on a regular basis and supplemental lighting was provided with overhead metal halide 1000-Watt lamps as necessary. The plants were employed for testing when they reached the first or second true leaf stage.
(§2) A weighed amount, determined by the highest rate to be tested, of each test compound was placed in a 25 mL glass vial and was dissolved in 4 mL of a 97:3 v/v mixture of acetone and DMSO to obtain concentrated stock solutions. […] The concentrated stock solutions obtained were diluted with 20 mL of an aqueous mixture containing acetone, water, isopropyl alcohol, DMSO, Atplus 411F crop oil concentrate, and Triton® X-155 surfactant in a 48.5:39:10:1.5:1.0:0.02 v/v ratio to obtain spray solutions containing the highest application rates. Additional application rates were obtained by serial dilution of 12 mL of the high rate solution into a solution containing 2 mL of a 97:3 v/v mixture of acetone and DMSO and 10 mL of an aqueous mixture containing acetone, water, isopropyl alcohol, DMSO, Atplus 411F crop oil concentrate, and Triton X-155 surfactant in a 48.5:39:10:1.5:1.0:0.02 v/v ratio to obtain ½×, ¼×, ⅛× and 1/16× rates of the high rate. Compound requirements are based upon a 12 mL application volume at a rate of 187 liters per hectare (L/ha). Formulated compounds were applied to the plant material with an overhead Mandel track sprayer equipped with 8002E nozzles calibrated to deliver 187 L/ha over an application area of 0.503 square meters at a spray height of 18 inches (43 cm) above the average plant canopy height. Control plants were sprayed in the same manner with the solvent blank.
(§3) The treated plants and control plants were placed in a greenhouse as described above and watered by subirrigation to prevent wash-off of the test compounds. After 14 d, the condition of the test plants as compared with that of the untreated plants was determined visually and scored on a scale of 0 to 100 percent where 0 corresponds to no injury and 100 corresponds to complete kill.

[2] = test system: ECHCG: barnyardgrass (Echinochloa crus-galli); experiment: Post-emergent herbicidal test, barnyardgrass; conditions: post-emergence, 336 h, 14 days after application, read-out: Visual Growth Reduction (%) 14 Days After Application ECHCG
Protocol: as §1, §2, §3

[3] = test system: CIRAR: Canada thistle (Cirsium arvense); experiment: Post-emergent herbicidal test, Canada thistle; conditions: post-emergence, 336 h, 14 days after application, read-out: Visual Growth Reduction (%) 14 Days After Application CIRAR
Protocol: as §1, §2, §3

[4] = test system: VIOTR: wild violet (Viola tricolor); experiment: Post-emergent herbicidal test, wild violet; conditions: post-emergence, 336 h, 14 days after application, read-out: Visual Growth Reduction (%) 14 Days After Application VIOTR
Protocol: as §1, §2, §3

[5] = test system: DIGSA: large crabgrass (Digitaria sanguinalis); experiment: Post-emergent herbicidal test, large crabgrass; conditions: post-emergence, 336 h, 14 days after application, read-out: Visual Growth Reduction (%) 14 Days After Application DIGSA
Protocol: as §1, §2, §3

[6] = test system: ABUTH: velvetleaf (Abutilon theophrasti); experiment: Post-emergent herbicidal test, velvetleaf; conditions: post-emergence, 336 h, 14 days after application, read-out: Visual Growth Reduction (%) 14 Days After Application ABUTH
Protocol: as §1, §2, §3

[7] = test system: IPOHE: ivyleaf morningglory (Ipomoea hederacea); experiment: Post-emergent herbicidal test, ivyleaf morningglory; conditions: post-emergence, 336 h, 14 days after application, read-out: Visual Growth Reduction (%) 14 Days After Application IPOHE
Protocol: as §1, §2, §3

[8] = test system: BRSNN: oilseed rape, canola (Brassica napus); experiment: Post-emergent herbicidal test, oilseed rape; conditions: post-emergence, 336 h, 14 days after application, read-out: Visual Growth Reduction (%) 14 Days After Application BRSNN
Protocol: as §1, §2, §3

[9] = test system: SORVU: shattercane (Sorghum bicolor); experiment: Post-emergent herbicidal test, shattercane; conditions: post-emergence, 336 h, 14 days after application, read-out: Visual Growth Reduction (%) 14 Days After Application SORVU
Protocol: as §1, §2, §3

[10] = test system: EPHHL: wild poinsettia (Euphorbia heterophylla); experiment: Post-emergent herbicidal test, wild poinsettia; conditions: post-emergence, 336 h, 14 days after application, read-out: Visual Growth Reduction (%) 14 Days After Application EPHHL
Protocol: as §1, §2, §3

[11] = test system: SETFA: giant foxtail (Setaria faberi); experiment: Post-emergent herbicidal test, giant foxtail; conditions: post-emergence, 336 h, 14 days after application, read-out: Visual Growth Reduction (%) 14 Days After Application SETFA
Protocol: as §1, §2, §3

Compound: COC(=O)c1nc(-c2ccc(Cl)c3c2OC(F)(F)O3)c(Cl)c(N)c1Cl [Compound 13]
- pest or weed control at 17.5 g/ha ([1]; 17.5 g ai/ha): 0%
- pest or weed control at 35 g/ha ([1]; 35 g ai/ha): 0%
- pest or weed control at 70 g/ha ([1]; 70 g ai/ha): 0%
- pest or weed control at 140 g/ha ([1]; 140 g ai/ha): 0%
- pest or weed control at 17.5 g/ha ([2]; 17.5 g ai/ha): 0%
- pest or weed control at 35 g/ha ([2]; 35 g ai/ha): 0%
- pest or weed control at 70 g/ha ([2]; 70 g ai/ha): 0%
- pest or weed control at 140 g/ha ([2]; 140 g ai/ha): 0%
- pest or weed control at 17.5 g/ha ([3]; 17.5 g ai/ha): 50%
- pest or weed control at 35 g/ha ([3]; 35 g ai/ha): 60%
- pest or weed control at 70 g/ha ([3]; 70 g ai/ha): 80%
- pest or weed control at 140 g/ha ([3]; 140 g ai/ha): 85%
- pest or weed control at 17.5 g/ha ([4]; 17.5 g ai/ha): 0%
- pest or weed control at 35 g/ha ([4]; 35 g ai/ha): 0%
- pest or weed control at 70 g/ha ([4]; 70 g ai/ha): 0%
- pest or weed control at 140 g/ha ([4]; 140 g ai/ha): 0%
- pest or weed control at 17.5 g/ha ([5]; 17.5 g ai/ha): 0%
- pest or weed control at 35 g/ha ([5]; 35 g ai/ha): 0%
- pest or weed control at 70 g/ha ([5]; 70 g ai/ha): 0%
- pest or weed control at 140 g/ha ([5]; 140 g ai/ha): 0%
- pest or weed control at 17.5 g/ha ([6]; 17.5 g ai/ha): 30%
- pest or weed control at 35 g/ha ([6]; 35 g ai/ha): 50%
- pest or weed control at 70 g/ha ([6]; 70 g ai/ha): 75%
- pest or weed control at 140 g/ha ([6]; 140 g ai/ha): 80%
- pest or weed control at 17.5 g/ha ([7]; 17.5 g ai/ha): 0%
- pest or weed control at 35 g/ha ([7]; 35 g ai/ha): 10%
- pest or weed control at 70 g/ha ([7]; 70 g ai/ha): 20%
- pest or weed control at 140 g/ha ([7]; 140 g ai/ha): 30%
- pest or weed control at 17.5 g/ha ([8]; 17.5 g ai/ha): 40%
- pest or weed control at 35 g/ha ([8]; 35 g ai/ha): 60%
- pest or weed control at 70 g/ha ([8]; 70 g ai/ha): 70%
- pest or weed control at 140 g/ha ([8]; 140 g ai/ha): 80%
- pest or weed control at 17.5 g/ha ([9]; 17.5 g ai/ha): 0%
- pest or weed control at 35 g/ha ([9]; 35 g ai/ha): 0%
- pest or weed control at 70 g/ha ([9]; 70 g ai/ha): 0%
- pest or weed control at 140 g/ha ([9]; 140 g ai/ha): 0%
- pest or weed control at 17.5 g/ha ([10]; 17.5 g ai/ha): 0%
- pest or weed control at 35 g/ha ([10]; 35 g ai/ha): 0%
- pest or weed control at 70 g/ha ([10]; 70 g ai/ha): 0%
- pest or weed control at 140 g/ha ([10]; 140 g ai/ha): 0%
- pest or weed control at 17.5 g/ha ([11]; 17.5 g ai/ha): 0%
- pest or weed control at 35 g/ha ([11]; 35 g ai/ha): 0%
- pest or weed control at 70 g/ha ([11]; 70 g ai/ha): 0%
- pest or weed control at 140 g/ha ([11]; 140 g ai/ha): 0%
